Like-named read-outs stand apart in the source and are kept apart here.
Assays:
[1] = target: dopamine transporter (DAT) (Cavia porcellus, UniProt H0WCX4); assay: Dopamine transporter binding assay [3H]WIN 35,428; set-up: species or system Guinea Pig; conditions: for inhibition at 10 µM: read-out: INH at 10 μM DAT
Protocol: DAT inhibition activity was tested according to the procedure described by J. Javitz et al., Mol. Pharmacol., 26: 35-44 (1984). The test results for a number of representative compounds of the invention are reported hereinbelow.
I. Dopamine Transporter Binding Assay [3H]WIN 35,428
• This assay was carried out according to the procedure described by Javitch, J. J. et al., Mol. Pharmacol. 26: 35-44; 1984
A. Tissue Preparation (Prepare all Solutions on Ice) • 1. Thaw frozen brains from male Guinea Pigs (in assay buffer) and place in 50 mM TRIS-HCl (pH 7.4 at 25° C. with 120 mM NaCl). Isolate striatum. • 2. Use a Polytron to homogenize tissue in 20 vols. (w/v) of 50 mM Tris-HCl (pH 7.4 at 25° C. with 120 mM NaCl). • 3. Centrifuge homogenate at 48,400×g for approximately 10 minutes at 4° C. Discard supernatant. • 4. Wash pellet an additional time as described in steps 2 and 3. • 5. Store pellet on ice until needed for binding assay. • 6. Using a Polytron (setting 5; approximately 10 seconds) resuspend pellet in 50 mM Tris-HCl (pH 7.4 at 25° C. with 120 mM NaCl) to an initial concentration of 10 mg/ml (original wet weight), such that the final concentration is 8 mg/ml or 4.0 mg tissue/tube.
B. Binding Reaction • 1. Each tube receives the following components: • 50 ul drug or vehicle • 50 ul [3H]-WIN 35,428 • 400 ul tissue suspension. • 2. Initiate binding reaction with the addition of tissue, and incubate for 120 minutes at 0° C. (on ice). • 3. Terminate binding reaction by rapid filtration of tube contents onto untreated Whatman GF/C filters. • 4. Rinse the assay tubes once with ice cold 50 mM TRIS HCl (pH 7.4 at 25° C. with 120 mM NaCl, BSA), then rapidly rinse the filters with 6×1 mls/tube of the same wash buffer. • 5. Radioactivity trapped onto the filters is assessed using LSM machine. Let sit for 3 hours in scint cocktail.
C. Dopamine Tranasporter Binding Assay
Materials and Reagents • 1. [3H]-WIN 35-428 is diluted to a concentration of 60 nM in 50 mM TRIS HCl (pH 7.4 at 25° C. with 120 mM NaCl). Thus, the final ligand concentration is 6 nM. • 2. Non-specific binding is defined as that remaining in the presence of 1×10^-6 M GBR12909 (room temperature cabinet). GBR12909 MW=523.5 g/mol. Will solubilize in 4% DMSO (sonicate 15 minutes). Aliquots can be used (1E-3). • 3. The reference compound for the assay is GBR12909 and is diluted in 4% DMSO and is then run at the following final concentrations: 1×10^−10, 5×10^−10, 2×10^−9, 5×10^−9, 1×10^−8, 2×10^−8, 5×10^−8, 1×10^−7, 2×10^−7, 5×10^−7, 1×10^−6, 5×10^−6. • 4. The positive control GBR12909 and is run at the final concentrations of: 2×10-8, 1×10^−7, 5×10^−7M. • 5. The Kd for the receptor is 28.0 nM. Buffers

[2] = target: Norepinephrine Transporter (Human Recombinant) (Homo sapiens (Human), UniProt P23975); assay: Norepinephrine transporter (human recombinant) binding assay, [3H]-Nisoxetine; conditions: for inhibition at 10 µM: read-out: INH at 10 μM NET
Protocol: II: Norepinephrine Transporter (Human Recombinant) Binding Assay • This assay was carried out in accordance with the procedure described by Raisman, R, et al. Eur. Jrnl. Pharmacol. 78: 345-351 (1982) with modifications. See also, Langer, S., et al., Eur. Jrnl. Pharmacol, 72: 423-4 (1981). Tissue Preparation • 1. hrNET (Receptor Biology; RBNET) is diluted in assay buffer to 2.5 microunits/ml, so that each tube receives 0.5 microunits, or 2 microunits/ml. • NOTE: 100 microassays, add 20 mis of buffer. Binding Reaction • 1. Each tube receives the following components: • 25 ul drug or vehicle • 25 ul [^3H]-Nisoxetine • 200 ul tissue suspension. • 2. Initiate binding reaction with the addition of tissue, and incubate at room temperature for 1 hour. • 3. Terminate binding reaction by rapid filtration of tube contents onto 0.1% PEI treated GF/C filters (TopCount). • 4. Rinse the assay tubes once with ice cold 50 mM NaCl, then rapidly rinse the filters with 6×1 ml/tube of the same wash buffer. • 5. Radioactivity trapped onto the filters is assessed using liquid scintillation spectrophotometer after soaking the filters for at least 1 hour in scintillation cocktail. Materials and Reagents • 1. The receptor source is human recombinant/CHO. • 2. [^3H]-Nisoxetine, diluted to a concentration of 10 nM in assay buffer, is used as the radioligand. Thus, the final ligand concentration is 1 nM. • 3. Non specific binding is defined as that remaining in the presence of 1×10^−6M desipramine (MW=302.8) (Make fresh: in bag with dessicating rocks 1, dissolves in water 1E-3). • 4. The reference compound for the assay is desipramine. Desimpramine is run at following final concentrations: • 1×10^−10, 2×10^−10, 5×10^−10, 1×10^−9, 2×10^−9, 5×10^−9, 1×10^−8, 2×10^−8, 5×10^−8, 1×10^−7, 2×10^−7, 5×10^−7M • 5. The positive control is any of the above run at the final concentrations of: • 1×10^−9, 5×10^−9, 2×10^−8 M. • 6. The Kd for the receptor is 3 nM. Buffers

[3] = in vivo; cited from earlier work

Sequence of dopamine transporter (DAT) (H0WCX4 1-619): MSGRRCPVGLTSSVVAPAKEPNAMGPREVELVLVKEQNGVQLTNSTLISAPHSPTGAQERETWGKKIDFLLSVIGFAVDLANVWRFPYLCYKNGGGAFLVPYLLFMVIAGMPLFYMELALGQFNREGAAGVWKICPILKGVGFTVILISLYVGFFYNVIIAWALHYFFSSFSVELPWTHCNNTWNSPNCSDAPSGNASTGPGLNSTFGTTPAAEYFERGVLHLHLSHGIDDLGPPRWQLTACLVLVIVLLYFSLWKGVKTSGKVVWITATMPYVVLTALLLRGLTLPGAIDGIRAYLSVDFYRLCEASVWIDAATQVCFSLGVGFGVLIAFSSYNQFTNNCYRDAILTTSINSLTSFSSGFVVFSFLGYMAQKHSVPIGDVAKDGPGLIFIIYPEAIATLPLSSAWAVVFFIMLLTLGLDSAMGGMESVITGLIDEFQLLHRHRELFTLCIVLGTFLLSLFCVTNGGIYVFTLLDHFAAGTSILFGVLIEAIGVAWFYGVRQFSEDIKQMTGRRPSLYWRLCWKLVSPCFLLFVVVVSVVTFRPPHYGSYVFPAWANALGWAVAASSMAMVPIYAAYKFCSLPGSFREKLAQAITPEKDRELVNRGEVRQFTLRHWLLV

## O=C(/N=c1\[cH-][n+](Cc2ccccc2)no1)Nc1ccccc1 [Example 1, N-phenylcarbamoyl-3-(benzyl)-sydonimine]
[1]
  Ki: 36 nM
  inhibition at 10 µM: 90%
[2]
  inhibition at 10 µM: 0%

## O=C(/N=c1\[cH-][n+](CCc2ccccc2)no1)Nc1ccc(Cl)c(Cl)c1 [Example 4, N-(3′,4′-dichlorophenyl) carbamoyl-3-phenethyl sydnonimine]
[1]
  Ki: 40 nM
  inhibition at 10 µM: 99%
[2]
  inhibition at 10 µM: 2%

## O=C(/N=c1\[cH-][n+](CCc2ccc([N+](=O)[O-])cc2)no1)Nc1ccc([N+](=O)[O-])c([N+](=O)[O-])c1 [Example 5, N-(3′,4′-dinitrophenyl)carbamoyl-3-p-nitrophenethyl sydnonimine]
[1]
  Ki: 100 nM
  inhibition at 10 µM: 85%
[2]
  inhibition at 10 µM: 4%

## O=C(/N=c1\[cH-][n+](Cc2ccc(F)cc2)no1)Nc1ccccc1 [Example 7, N-phenylcarbamoyl-3-(p-fluoro-benzyl)-sydnonimine]
[1]
  Ki: 0.46 nM
  inhibition at 10 µM: 99%
[2]
  inhibition at 10 µM: 15%

## CC(Cc1ccccc1)[n+]1cc([N-]C(=O)Nc2ccccc2)on1 (stereo not shown) [sydnocarb, 3-(1-methyl-2-phenylethyl)-N-(phenylcarbomoyl)sydnone imine]
[3]
  Effect on locomotor activity in open field studies: locomotor stimulating effect

## O=C([N-]c1c[n+](Cc2ccc(C(=O)O)cc2)no1)Nc1ccccc1 [Example 2]
[1]; 10 μM
  INH at 10 μM DAT: 92%
[1]; read-out: Ki DAT
  Ki: 2.7 nM
[2]; 10 μM
  INH at 10 μM NET: 11%

— patent US9604945B2, “Sydnonimines-specific dopamine reuptake inhibitors and their use in treating dopamine related disorders” (priority 2007, dated 2017)
